Test results reported in article PMC11947183 (Communications Biology, 2025).

Columns and labels:
[1] = target: MjavOBP1; type: binding, Manis javanica; conditions: for Kd: read-out: K d (competitive binding), pH 7.4
[2] = target: MjavOBP2; parameters: species or system Manis javanica; conditions: read-out: K d (competitive binding); pH 7.4
[3] = system: MjavOBP3; parameters: species or system Manis javanica; conditions: read-out: IC50 (competitive binding); pH 7.4

Q: How did the Kd [1] turn out when `CCCCCCCCCC(C)=O` [2-undecanone, 2-Undecanone] was run?
A: 56.6 ± 4.2 µM

Q: And the Kd [2]?
A: 54.5 ± 10.8 µM

Q: Which IC50 [3] does the source give for `CCCCCC=O` [hexanal, Hexanal] here?
A: > 2.23 µM

Q: Which IC50 [3] does the source give for `C=CC(=C)CC/C=C(\C)CCC=C(C)C` [β-farnesene] here?
A: > 2.23 µM

Q: Which “binding to MjavOBP1 (in words)” value [1] does the source give for `O=C(O)CCc1ccccc1` [3-phenylpropionic acid, 3-Phenylpropionic acid] here?
A: bound weakly

Q: With `Cc1c[nH]c2ccccc12` [skatole, 3-methylindole] as the compound, how does the Kd [2] read?
A: 40.8 ± 8.93 µM

Q: `CC(C)=CCCC(C)=CC=O` (mixture of isomers) [citral, Citral] was tested. Which “binding to MjavOBP1 (in words)” value [1] did it give?
A: bound weakly

Q: Which Kd [1] does the source give for `CCCCCCCC1CCCC(=O)O1` (stereo not drawn) [δ-dodecalactone, δ-Dodecalactone] here?
A: 38.7 ± 2.04 µM

Q: `CCCCCCCCC(=O)CC` [3-undecanone, 3-Undecanone] was tested. Which IC50 [3] did it give?
A: > 2.23 µM
